Laboratory results taken from patent publication US10385069B2, “Imidazo[2,1-B]thiazole and 5,6-dihydroimidazo[2,1-B]thiazole derivatives useful as S100-inhibitors” (Active Biotech AB, priority 2015, dated 2019).

Target: T1, interaction between biotinylated human S100A9 and human RAGE-Fc (Homo sapiens, UniProt P06702)
T1 construct: made in house; host or cells: E. coli
T1 sequence (P06702 1-114): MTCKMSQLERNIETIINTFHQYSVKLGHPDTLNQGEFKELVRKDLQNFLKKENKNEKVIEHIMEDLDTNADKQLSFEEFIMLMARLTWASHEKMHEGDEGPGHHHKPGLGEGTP
Experiment: AlphaScreen inhibition assay, biot-hS100A9:hRAGE-Fc
Type: binding
Settings: biot-hS100A9 pre-incubated with compound 1 h, assay buffer with CaCl2 and ZnCl2
Outline: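 Biotinylated human S100A9, preincubated with compound, binds human RAGE-Fc on protein A Acceptor beads in HBS-P with CaCl2 and ZnCl2; streptavidin Donor beads added, AlphaScreen signal read. Protein levels set by cross-titration; beads 20 μg/mL final. Percent inhibition versus DMSO control; IC50 from varied compound concentrations.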

SMILES | IC50 [nM]
COCCN1CCN(Cc2c(C(=O)O)nc3sc4c(n23)CCC(C(C)(C)C)C4)CC1 (stereo not drawn) [Example 272, 10-tert-Butyl-3-{[4-(2-methoxyethyl)piperazin-1-yl]methyl}-7-thia-2,5-diazatricyclo[6.4.0.0^2,6]dodeca-1(8),3,5-triene-4-carboxylic acid] | 1770
CN1CCN(Cc2c(C(=O)O)nc3sc4c(n23)CCC(C(C)(C)C)C4)CC1 (stereo not drawn) [Example 273, 10-tert-Butyl-3-[(4-methylpiperazin-1-yl)methyl]-7-thia-2,5-diazatricyclo[6.4.0.0^2,6]dodeca-1(8),3,5-triene-4-carboxylic acid] | 1490
CC(=O)N1CCN(Cc2c(C(=O)O)nc3sc4c(n23)CCC(C(C)(C)C)C4)CC1 (stereo not drawn) [Example 275, 3-[(4-Acetylpiperazin-1-yl)methyl]-10-tert-butyl-7-thia-2,5-diazatricyclo[6.4.0.0^2,6]dodeca-1(8),3,5-triene-4-carboxylic acid] | 1090
CN1CCN(c2c(C(=O)O)nc3sc4c(Cl)c(F)ccc4n23)CC1 [Example 276, 9-Chloro-10-fluoro-3-(4-methylpiperazin-1-yl)-7-thia-2,5-diazatricyclo[6.4.0.0^2,6]dodeca-1(8),3,5,9,11-pentaene-4-carboxylic acid] | 390
O=C(O)c1nc2sc3c(Cl)c(F)ccc3n2c1NCCN1CCCC1 [Example 277, 9-Chloro-10-fluoro-3-{[2-(pyrrolidin-1-yl)ethyl]amino}-7-thia-2,5-diazatricyclo[6.4.0.0^2,6]dodeca-1(8),3,5,9,11-pentaene-4-carboxylic acid] | 1050
O=C(NS(=O)(=O)c1ccccc1)C1CN2C(=N1)Sc1c2ccc(F)c1Cl (stereo not drawn) [Example 278, N-(Benzenesulfonyl)-9-chloro-10-fluoro-7-thia-2,5-diazatricyclo[6.4.0.0^2,6]dodeca-1(8),5,9,11-tetraene-4-carboxamide] | 170
CN(C)c1c(C(=O)O)nc2sc3c(n12)CC(C)(C)CC3(C)C [Example 280, 3-(Dimethylamino)-9,9,11,11-tetramethyl-7-thia-2,5-diazatricyclo[6.4.0.0^2,6]dodeca-1(8),3,5-triene-4-carboxylic acid] | 420
O=C(O)c1nc2sc3c(Cl)c(F)ccc3n2c1C1CNC1 [Example 281, 3-(Azetidin-3-yl)-9-chloro-10-fluoro-7-thia-2,5-diazatricyclo[6.4.0.0^2,6]dodeca-1(8),3,5,9,11-pentaene-4-carboxylic acid] | 1800
CC(=O)N1CCN(c2c(C(=O)O)nc3sc4c(n23)CC(C)(C)CC4(C)C)CC1 [Example 284, 3-(4-Acetylpiperazin-1-yl)-9,9,11,11-tetramethyl-7-thia-2,5-diazatricyclo[6.4.0.0^2,6]dodeca-1(8),3,5-triene-4-carboxylic acid] | 700
O=C(O)C1CN2C(=N1)Sc1c2cc(OCCN2CCOCC2)c(Cl)c1Cl (stereo not drawn) [Example 285, 9,10-Dichloro-11-[2-(morpholin-4-yl)ethoxy]-7-thia-2,5-diazatricyclo[6.4.0.0^2,6]dodeca-1(8),5,9,11-tetraene-4-carboxylic acid] | 1270
C=C(C)c1c(C(=O)O)nc2sc3c(n12)CC(C)(C)CC3(C)C [Example 287, 9,9,11,11-Tetramethyl-3-(prop-1-en-2-yl)-7-thia-2,5-diazatricyclo[6.4.0.0^2,6]dodeca-1(8),3,5-triene-4-carboxylic acid] | 760
CN1CCN(c2c(C(=O)O)nc3sc4c(n23)CC(C)(C)CC4(C)C)CC1 [Example 288, 9,9,11,11-Tetramethyl-3-(4-methylpiperazin-1-yl)-7-thia-2,5-diazatricyclo[6.4.0.0^2,6]dodeca-1(8),3,5-triene-4-carboxylic acid] | 1060

The remaining lines, values ahead:

IC50 [nM] | SMILES
820 | O=C(O)c1cn2c(n1)sc1c(F)c(Cl)c(OCCN3CCOCC3)cc12 [Example 289, 10-Chloro-9-fluoro-11-[2-(morpholin-4-yl)ethoxy]-7-thia-2,5-diazatricyclo[6.4.0.0^2,6]dodeca-1(8),3,5,9,11-pentaene-4-carboxylic acid]
940 | CN1CC(c2c(C(=O)O)nc3sc4c(Cl)c(F)ccc4n23)C1 [Example 290, 9-Chloro-10-fluoro-3-(1-methylazetidin-3-yl)-7-thia-2,5-diazatricyclo[6.4.0.0^2,6]dodeca-1(8),3,5,9,11-pentaene-4-carboxylic acid]
100 | O=C(O)c1nc2sc3c(Cl)c(F)ccc3n2c1C1CC1 [Example 291, 9-Chloro-3-cyclopropyl-10-fluoro-7-thia-2,5-diazatricyclo[6.4.0.0^2,6]dodeca-1(8),3,5,9,11-pentaene-4-carboxylic acid]
290 | CSc1c(C(=O)O)nc2sc3c(n12)CC(C)(C)CC3(C)C [Example 292, 9,9,11,11-Tetramethyl-3-(methylsulfanyl)-7-thia-2,5-diazatricyclo[6.4.0.0^2,6]dodeca-1(8),3,5-triene-4-carboxylic acid]
500 | CS(=O)(=O)N1CC(c2c(C(=O)O)nc3sc4c(Cl)c(F)ccc4n23)C1 [Example 293, 9-Chloro-10-fluoro-3-(1-methanesulfonylazetidin-3-yl)-7-thia-2,5-diazatricyclo[6.4.0.0^2,6]dodeca-1(8),3,5,9,11-pentaene-4-carboxylic acid]
780 | CC1(C(=O)NS(C)(=O)=O)CN2C(=N1)Sc1c2ccc(F)c1Cl (stereo not drawn) [Example 294, 9-Chloro-10-fluoro-N-methanesulfonyl-4-methyl-7-thia-2,5-diazatricyclo[6.4.0.0^2,6]dodeca-1(8),5,9,11-tetraene-4-carboxamide]
